Measured values reported in PubChem BioAssay (NCI).
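96-well plates; 48 h exposure; 5 concentrations. Endpoints by linear interpolation between flanking doses. Not reached: highest tested concentration assigned. GI50 is the concentration that inhibits growth by half. TGI denotes the concentration required for complete inhibition of growth.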

Key:
Assay in all cases: NCI anticancer screen, dose series, 48 h
DU-145 prostate = system: DU-145 prostate
K-562 leukemia = system: K-562 leukemia
EKVX NSCLC = system: EKVX NSCLC
MDA-MB-435 = system: MDA-MB-435
SK-MEL-2 melanoma = system: SK-MEL-2 melanoma
HOP-92 NSCLC = system: HOP-92 NSCLC
A498 renal = system: A498 renal
SK-OV-3 ovarian = system: SK-OV-3 ovarian
786-0 renal = system: 786-0 renal
HS 578T breast = system: HS 578T breast
SK-MEL-28 melanoma = system: SK-MEL-28 melanoma
OVCAR-5 ovarian = system: OVCAR-5 ovarian
HCC-2998 colon = system: HCC-2998 colon
ACHN renal = system: ACHN renal
MALME-3M melanoma = system: MALME-3M melanoma
BT-549 breast = system: BT-549 breast
HT29 colon = system: HT29 colon
NCI-H226 lung = system: NCI-H226 lung
MDA-MB-231 breast = system: MDA-MB-231 breast
COLO 205 colon = system: COLO 205 colon
OVCAR-3 ovarian = system: OVCAR-3 ovarian
NCI-H23 lung = system: NCI-H23 lung
HCT-116 colon = system: HCT-116 colon
MOLT-4 leukemia = system: MOLT-4 leukemia
NCI-H460 lung = system: NCI-H460 lung
SF-268 CNS = system: SF-268 CNS
SNB-75 CNS = system: SNB-75 CNS
HOP-62 NSCLC = system: HOP-62 NSCLC
OVCAR-4 ovarian = system: OVCAR-4 ovarian
CCRF-CEM leukemia = system: CCRF-CEM leukemia
RPMI-8226 leukemia = system: RPMI-8226 leukemia
SF-539 CNS = system: SF-539 CNS
NCI-H522 lung = system: NCI-H522 lung
SNB-19 CNS = system: SNB-19 CNS
NCI/ADR-RES ovarian = system: NCI/ADR-RES ovarian
SF-295 CNS = system: SF-295 CNS
SW-620 colon = system: SW-620 colon
UACC-62 melanoma = system: UACC-62 melanoma
IGROV1 ovarian = system: IGROV1 ovarian
OVCAR-8 ovarian = system: OVCAR-8 ovarian
UO-31 renal = system: UO-31 renal
UACC-257 melanoma = system: UACC-257 melanoma
A549 NSCLC = system: A549 NSCLC
M14 melanoma = system: M14 melanoma
PC-3 prostate = system: PC-3 prostate
HCT-15 colon = system: HCT-15 colon
KM12 colon = system: KM12 colon
T-47D breast = system: T-47D breast
HL-60(TB) leukemia = system: HL-60(TB) leukemia
LOX IMVI melanoma = system: LOX IMVI melanoma
TK-10 renal = system: TK-10 renal
RXF 393 renal = system: RXF 393 renal
SK-MEL-5 melanoma = system: SK-MEL-5 melanoma
SR leukemia = system: SR leukemia
U251 CNS = system: U251 CNS
MCF7 breast = system: MCF7 breast
SN12C renal = system: SN12C renal

COc1ccc(-c2c(NC(=O)Nc3ccc(Cl)c(C(F)(F)F)c3)cnn2-c2ccc(S(N)(=O)=O)cc2)cc1
GI50 (DU-145 prostate): 3.46 µM | TGI (DU-145 prostate): 12.1 µM | GI50 (K-562 leukemia): 3.13 µM | TGI (K-562 leukemia): 16.9 µM | GI50 (EKVX NSCLC): 3.77 µM | TGI (EKVX NSCLC): 16.4 µM | GI50 (MDA-MB-435): 2.77 µM | TGI (MDA-MB-435): 9.6 µM | GI50 (SK-MEL-2 melanoma): 2.42 µM | TGI (SK-MEL-2 melanoma): 5.52 µM | GI50 (HOP-92 NSCLC): 2.02 µM | TGI (HOP-92 NSCLC): 7.32 µM | GI50 (A498 renal): 2.84 µM | TGI (A498 renal): 8.29 µM | GI50 (SK-OV-3 ovarian): 3.69 µM | TGI (SK-OV-3 ovarian): 14 µM | GI50 (786-0 renal): 1.68 µM | TGI (786-0 renal): 3.42 µM | GI50 (HS 578T breast): 3.41 µM | TGI (HS 578T breast): 16.9 µM | GI50 (SK-MEL-28 melanoma): 3.73 µM | TGI (SK-MEL-28 melanoma): 13.7 µM | GI50 (OVCAR-5 ovarian): 3.54 µM | TGI (OVCAR-5 ovarian): 14.4 µM | GI50 (HCC-2998 colon): 3.13 µM | TGI (HCC-2998 colon): 8.85 µM | GI50 (ACHN renal): 3.97 µM | TGI (ACHN renal): 14.2 µM | GI50 (MALME-3M melanoma): 2.51 µM | TGI (MALME-3M melanoma): 7.72 µM | GI50 (BT-549 breast): 1.81 µM | TGI (BT-549 breast): 4.4 µM | GI50 (HT29 colon): 3.59 µM | TGI (HT29 colon): 10.9 µM | GI50 (NCI-H226 lung): 3.23 µM | TGI (NCI-H226 lung): 14.6 µM | GI50 (MDA-MB-231 breast): 2.04 µM | TGI (MDA-MB-231 breast): 4.72 µM | GI50 (COLO 205 colon): 2.31 µM | TGI (COLO 205 colon): 5.31 µM | GI50 (OVCAR-3 ovarian): 2.4 µM | TGI (OVCAR-3 ovarian): 6.53 µM | GI50 (NCI-H23 lung): 3.14 µM | TGI (NCI-H23 lung): 12.4 µM | GI50 (HCT-116 colon): 2.04 µM | TGI (HCT-116 colon): 4.22 µM | GI50 (MOLT-4 leukemia): 2.01 µM | TGI (MOLT-4 leukemia): 5.97 µM | GI50 (NCI-H460 lung): 3.5 µM | TGI (NCI-H460 lung): 10.4 µM | GI50 (SF-268 CNS): 3.34 µM | TGI (SF-268 CNS): 14.7 µM | GI50 (SNB-75 CNS): 2.3 µM | TGI (SNB-75 CNS): 13.3 µM | GI50 (HOP-62 NSCLC): 4.07 µM | TGI (HOP-62 NSCLC): 16.1 µM | GI50 (OVCAR-4 ovarian): 2.9 µM | TGI (OVCAR-4 ovarian): 13.1 µM | GI50 (CCRF-CEM leukemia): 3 µM | TGI (CCRF-CEM leukemia): 11.3 µM | GI50 (RPMI-8226 leukemia): 3.14 µM | TGI (RPMI-8226 leukemia): 13.5 µM | GI50 (SF-539 CNS): 3.06 µM | TGI (SF-539 CNS): 9.9 µM | GI50 (NCI-H522 lung): 2.98 µM | TGI (NCI-H522 lung): 12.3 µM | GI50 (SNB-19 CNS): 3.85 µM | TGI (SNB-19 CNS): 14.7 µM | GI50 (NCI/ADR-RES ovarian): 24.7 µM | TGI (NCI/ADR-RES ovarian): > 100 µM | GI50 (SF-295 CNS): 2.72 µM | TGI (SF-295 CNS): 10.9 µM | GI50 (SW-620 colon): 3.86 µM | TGI (SW-620 colon): 13.8 µM | GI50 (UACC-62 melanoma): 2.07 µM | TGI (UACC-62 melanoma): 4.47 µM | GI50 (IGROV1 ovarian): 3.66 µM | TGI (IGROV1 ovarian): 21.3 µM | GI50 (OVCAR-8 ovarian): 3.39 µM | TGI (OVCAR-8 ovarian): 13 µM | GI50 (UO-31 renal): 3.39 µM | TGI (UO-31 renal): 15.1 µM | GI50 (UACC-257 melanoma): 3.29 µM | TGI (UACC-257 melanoma): 12 µM | GI50 (A549 NSCLC): 3.46 µM | TGI (A549 NSCLC): 13.6 µM | GI50 (M14 melanoma): 3.32 µM | TGI (M14 melanoma): 12 µM | GI50 (PC-3 prostate): 2.87 µM | TGI (PC-3 prostate): 11.4 µM | GI50 (HCT-15 colon): 3.63 µM | TGI (HCT-15 colon): 14.4 µM | GI50 (KM12 colon): 3.04 µM | TGI (KM12 colon): 11.6 µM | GI50 (T-47D breast): 2.69 µM | TGI (T-47D breast): 12.4 µM | GI50 (HL-60(TB) leukemia): 2.27 µM | TGI (HL-60(TB) leukemia): 5.67 µM | GI50 (LOX IMVI melanoma): 2.75 µM | TGI (LOX IMVI melanoma): 8.36 µM | GI50 (TK-10 renal): 3.85 µM | TGI (TK-10 renal): 15.3 µM | GI50 (RXF 393 renal): 2.6 µM | TGI (RXF 393 renal): 9.83 µM | GI50 (SK-MEL-5 melanoma): 1.9 µM | TGI (SK-MEL-5 melanoma): 3.85 µM | GI50 (SR leukemia): 1.99 µM | TGI (SR leukemia): 5.83 µM | GI50 (U251 CNS): 3.3 µM | TGI (U251 CNS): 12.3 µM | GI50 (MCF7 breast): 2.67 µM | TGI (MCF7 breast): 9.22 µM | GI50 (SN12C renal): 3.58 µM | TGI (SN12C renal): 13.1 µM
